Experimental data taken from the NIST ThermoML archive (doi:10.1021/je800589e).
± gives the expanded uncertainty stated by the source.

Experiment: xn = mol fraction of the nth substance listed
Settings: Ring tensiometer

CCN1CCCC1=O [1-ethyl-2-pyrrolidinone] + O
surface tension liquid-gas [mN/m]
Settings | 293.15 K | 298.15 K | 303.15 K | 313.15 K | 323.15 K
x1 = 0.0002 | 65.16 ± 0.95 | 62.84 | 60.76 ± 0.9 | 58.13 ± 29 | 53.44 ± 0.8
x1 = 0.0005 | 59.61 ± 1.1 | 57.85 ± 1.3 | 55.95 ± 1.2 | 53.14 ± 1.2 | 50.14 ± 0.84
x1 = 0.001 | 56.3 ± 0.91 | 54.77 ± 0.95 | 53.23 ± 0.91 | 51 ± 0.83 | 49 ± 0.75
x1 = 0.01 | 48.62 ± 0.76 | 47.51 ± 0.74 | 46.59 ± 0.71 | 45.11 ± 0.68 | 43.84 ± 0.66
x1 = 0.02 | 44.12 ± 0.61 | 43.28 ± 0.59 | 42.53 ± 0.58 | 41.4 ± 0.57 | 40.2 ± 0.56
x1 = 0.05 | 43.48 ± 0.59 | 42.53 ± 0.58 | 41.79 ± 0.57 | 40.32 ± 0.56 | 39.26 ± 0.54
x1 = 0.1 | 42.11 ± 0.58 | 41.22 ± 0.57 | 40.42 ± 0.56 | 39.3 ± 0.55 | 38.32 ± 0.53
x1 = 0.2 | 40.9 ± 0.57 | 40.09 ± 0.56 | 39.35 ± 0.55 | 38.43 ± 0.54 | 37.22 ± 0.52
x1 = 0.3 | 40.28 ± 0.56 | 39.44 ± 0.55 | 38.52 ± 0.54 | 37.59 ± 0.53 | 36.48 ± 0.52
x1 = 0.4 | 39.63 ± 0.56 | 38.73 ± 0.55 | 37.87 ± 0.53 | 36.87 ± 0.52 | 35.72 ± 0.51
x1 = 0.5 | 39.25 ± 0.55 | 38.23 ± 0.54 | 37.31 ± 0.53 | 36.2 ± 0.52 | 35.26 ± 0.51
x1 = 0.6 | 38.6 ± 0.55 | 37.89 ± 0.54 | 36.94 ± 0.53 | 35.83 ± 0.51 | 34.86 ± 0.5
x1 = 0.7 | 38.04 ± 0.55 | 37.01 ± 0.53 | 36.39 ± 0.52 | 35.35 ± 0.51 | 34.72 ± 0.5
x1 = 0.8 | 37.71 ± 0.54 | 36.63 ± 0.53 | 35.9 ± 0.52 | 35.08 ± 0.51 | 34.35 ± 0.5
x1 = 0.9 | 37.09 ± 0.54 | 36.17 ± 0.53 | 35.63 ± 0.52 | 34.72 ± 0.51 | 34 ± 0.5
x1 = 1 | 36.48 ± 0.53 | 35.65 ± 0.52 | 35 ± 0.52 | 34.35 ± 0.51 | 33.61 ± 0.5
